Results reported in patent US20250144067A1, “PERSONALIZED STARVATION THERAPY FOR CANCER” (Faeth Therapeutics, Inc., priority 2021, published 2025).
Counter-ions that a name gives are not always drawn.

Experiments:
[1] = test system: NCI-H292 lung cancer cells; experiment: FDA drug screening, complete media vs cholesterol-free media without statin (TABLE 1); format: cell-based, human
[2] = test system: NCI-H292 lung cancer cells; experiment: FDA drug screening, complete media vs cholesterol-free media with simvastatin (TABLE 2); format: cell-based, human; conditions: for Cholesterol-free media + simvastatin (0.04 μM) / Complete Media: NCI-H292 cells
[3] = Complete minus Cholesterol-free, greater than 0 enhanced anti-cancer activity, about 0 neutral, below 0 antagonist
[4] = NCI-H292 cells, FDA drug library screen, cholesterol-free media without statin
[5] = NCI-H292 cells, FDA drug library screen, complete media
[6] = FDA library drug in cholesterol-free media with simvastatin 0.04 μM
[7] = FDA library drug in complete media
[8] = complete media vs cholesterol-free media + simvastatin (0.04 μM), >0 enhanced anti-cancer activity, about 0 neutral, <0 antagonist
[9] = NCI-H292 cells, cholesterol-free media without statin
[10] = complete vs cholesterol-free media, greater than 0 enhanced anti-cancer activity, about 0 neutral, below 0 antagonists
[11] = FDA drug library screen, cholesterol-free media with simvastatin 0.04 μM
[12] = FDA drug library screen, complete media
[13] = complete media minus cholesterol-free media + simvastatin, >0 enhanced anti-cancer activity, about 0 neutral, <0 antagonist
[14] = Complete minus Cholesterol-free, […]
[15] = NCI-H292 cells, cholesterol-free media without statin, FDA drug library screen
[16] = NCI-H292 cells, complete media, FDA drug library screen
[17] = complete media vs cholesterol-free media + simvastatin (0.04 μM), […]
[18] = Complete minus Cholesterol-free, >0 enhanced anti-cancer activity, about 0 neutral, <0 antagonist
[19] = drug in cholesterol-free media with simvastatin 0.04 μM
[20] = complete vs cholesterol-free media, […]
[21] = cholesterol-free media with simvastatin 0.04 μM, FDA drug library screen (TABLE 2)
[22] = complete media, FDA drug library screen (TABLE 2)
[23] = complete vs cholesterol-free media, >0 enhanced anti-cancer activity, about 0 neutral, <0 antagonist

## CNCc1cc(-c2ccccc2F)n(S(=O)(=O)c2cccnc2)c1 [Vonoprazan]
[1]; [3]
  Difference: −0.07
[1]; [4]
  Cholesterol-free: 1.105
[1]; [5]
  Complete: 1.031
[2]; [6]
  Cholesterol-free media + simvastatin (0.04 μM): 1.249
[2]; [7]
  Complete Media: 0.8473
[2]; [8]
  Difference: −0.40

## CNC[C@H](O)c1cccc(O)c1 [Phenylephrine]
[1]; [9]
  Cholesterol-free: 1.197
[1]; NCI-H292 cells, complete media
  Complete: 0.817
[1]; [10]
  Difference: −0.38
[2]; [11]
  Cholesterol-free media + simvastatin (0.04 μM): 1.256
[2]; [12]
  Complete Media: 1.518
[2]; [13]
  Difference: 0.26

## CC[C@H](C)[C@H]1O[C@]2(CC[C@@H]1C)C[C@@H]1C[C@@H](C/C=C(\C)[C@@H](O[C@H]3C[C@H](OC)[C@@H](O[C@H]4C[C@H](OC)[C@@H](O)[C@H](C)O4)[C@H](C)O3)[C@@H](C)/C=C/C=C3\CO[C@@H]4[C@H](O)C(C)=C[C@@H](C(=O)O1)[C@]34O)O2 [Ivermectin]
[1]; [14]
  Difference: 0.00
[1]; [15]
  Cholesterol-free: 0.1454
[1]; [16]
  Complete: 0.1503
[2]; [6]
  Cholesterol-free media + simvastatin (0.04 μM): 1.074
[2]; [7]
  Complete Media: 0.4557
[2]; [17]
  Difference: −0.62

## O=c1ccn([C@@H]2O[C@H](CO)[C@@H](O)[C@H]2O)c(=O)[nH]1 [Uridine]
[1]; [18]
  Difference: −0.19
[1]; [9]
  Cholesterol-free: 1.404
[1]; NCI-H292 cells, complete media
  Complete: 1.215
[2]; [6]
  Cholesterol-free media + simvastatin (0.04 μM): 1.294
[2]; [7]
  Complete Media: 1.006
[2]; [8]
  Difference: −0.29

## CN1CCN(c2ccc(C(=O)Nc3n[nH]c4ccc(Cc5cc(F)cc(F)c5)cc34)c(NC3CCOCC3)c2)CC1 [Entrectinib]
[1]; [18]
  Difference: −0.05
[1]; [15]
  Cholesterol-free: 0.4371
[1]; [16]
  Complete: 0.3827
[2]; cholesterol-free media with simvastatin 0.04 μM, cell growth value in FDA drug screen
  Cholesterol-free media + simvastatin (0.04 μM): 0.2455
[2]; complete media, cell growth value in FDA drug screen
  Complete Media: 0.2696
[2]; [13]
  Difference: 0.02

## C[C@]12CCC3=C4CCC(=O)C=C4CC[C@H]3[C@@H]1CC[C@@]2(O)CC#N [Dienogest]
[1]; [9]
  Cholesterol-free: 1.387
[1]; NCI-H292 cells, complete media
  Complete: 1.069
[1]; [10]
  Difference: −0.32
[2]; [19]
  Cholesterol-free media + simvastatin (0.04 μM): 0.9182
[2]; drug in complete media
  Complete Media: 0.7086
[2]; [8]
  Difference: −0.21

## c1ccc2c(c1)CCCC2C1=NCCN1 (stereo not drawn) [Tetrahydrozoline (hydrochloride)]
[1]; [18]
  Difference: −0.03
[1]; [15]
  Cholesterol-free: 0.9833
[1]; [16]
  Complete: 0.9541
[2]; [11]
  Cholesterol-free media + simvastatin (0.04 μM): 1.06
[2]; [12]
  Complete Media: 0.9332
[2]; [8]
  Difference: −0.13

## COS(=O)(=O)[O-].C[N+]1(C)CCC(=C(c2ccccc2)c2ccccc2)CC1 [Diphenmanil (methylsulfate)]
[1]; [15]
  Cholesterol-free: 0.8176
[1]; [16]
  Complete: 0.9244
[1]; [20]
  Difference: 0.11
[2]; [6]
  Cholesterol-free media + simvastatin (0.04 μM): 2.109
[2]; [7]
  Complete Media: 1.508
[2]; [17]
  Difference: −0.60

## COc1cc2nccc(Oc3ccc(NC(=O)C4(C(=O)Nc5ccc(F)cc5)CC4)cc3)c2cc1OC [Cabozantinib]
[1]; [3]
  Difference: −0.08
[1]; [4]
  Cholesterol-free: 1.023
[1]; [5]
  Complete: 0.943
[2]; [21]
  Cholesterol-free media + simvastatin (0.04 μM): 1.169
[2]; [22]
  Complete Media: 1.161
[2]; complete media minus cholesterol-free media + simvastatin (0.04 μM), >0 enhanced anti-cancer activity, about 0 neutral, <0 antagonist
  Difference: −0.01

## COc1cccc2c1C(=O)c1c(O)c3c(c(O)c1C2=O)C[C@@](O)(C(=O)CO)C[C@@H]3O[C@H]1C[C@H](N)[C@H](O[C@@H]2CCCCO2)[C@H](C)O1 [Pirarubicin (Hydrochloride)]
[1]; [14]
  Difference: −0.09
[1]; [4]
  Cholesterol-free: 0.6484
[1]; [5]
  Complete: 0.5605
[2]; [21]
  Cholesterol-free media + simvastatin (0.04 μM): 0.5554
[2]; [22]
  Complete Media: 0.5244
[2]; complete media minus cholesterol-free media + simvastatin (0.04 μM), […]
  Difference: −0.03

## O=C(c1ccc(OCCN2CCCCC2)cc1)c1c(-c2ccc(O)cc2)sc2cc(O)ccc12 [Raloxifene (hydrochloride)]
[1]; [15]
  Cholesterol-free: 0.9028
[1]; [16]
  Complete: 1.184
[1]; [23]
  Difference: 0.28
[2]; [11]
  Cholesterol-free media + simvastatin (0.04 μM): 0.3884
[2]; [12]
  Complete Media: 0.7486
[2]; [13]
  Difference: 0.36

## CN(C(=O)CN(CCO)CC(=O)N(C)C(C)(C)Cc1ccccc1)C(C)(C)Cc1ccccc1 [Oxethazaine]
[1]; Complete minus Cholesterol-free, greater than 0 enhanced anti-cancer activity, about 0 neutral, below 0 antagonists
  Difference: −1.45
[1]; NCI-H292 cells in cholesterol-free media without statin
  Cholesterol-free: 2.442
[1]; NCI-H292 cells in complete media
  Complete: 0.9966
[2]; [11]
  Cholesterol-free media + simvastatin (0.04 μM): 1.131
[2]; [12]
  Complete Media: 0.9874
[2]; [8]
  Difference: −0.14

## CCC(=O)O[C@H]1CC[C@H]2[C@@H]3CCC4=CC(=O)CC[C@]4(C)[C@H]3CC[C@]12C [Testosterone propionate]
[1]; [9]
  Cholesterol-free: 1.308
[1]; NCI-H292 cells, complete media
  Complete: 0.9212
[1]; [20]
  Difference: −0.39
[2]; [6]
  Cholesterol-free media + simvastatin (0.04 μM): 1.059
[2]; [7]
  Complete Media: 0.7669
[2]; [17]
  Difference: −0.29

## CC1(C)S[C@@H]2[C@H](NC(=O)C(c3ccccc3)S(=O)(=O)O)C(=O)N2[C@H]1C(=O)O (stereo partly drawn) [Sulbenicillin (disodium)]
[1]; [15]
  Cholesterol-free: 0.8061
[1]; [16]
  Complete: 1.226
[1]; [23]
  Difference: 0.42
[2]; [19]
  Cholesterol-free media + simvastatin (0.04 μM): 1.164
[2]; drug in complete media
  Complete Media: 0.9986
[2]; [8]
  Difference: −0.17
